Among the data in ChEMBL document CHEMBL2202958, “Development of potent macrocyclic inhibitors of genotype 3a HCV NS3/4A protease” (Bioorg Med Chem Lett, 2012) are IC50, Ki and concentration values, retold here.

The subject of data set [1] is Hepatitis C virus. In words: Antiviral activity against HCV1b by cell based replicon assay. In kind it is functional, organism-based, Hepacivirus hominis. Particulars: genotype 1b.
Data set [2] deals with Hepatitis C virus. Briefly: Inhibition of HCV1b NS3/4A protease. Details: species or system Hepatitis C virus subtype 1b.
A short description of data set [3]: Inhibition of HCV3a NS3/4A protease. Further details: species or system Hepatitis C virus subtype 3a.
Data set [4] can be described thus: Drug level in Sprague-Dawley rat liver at 5 mg/kg, po after 4 hrs. In kind it is ADME, organism-based. Details: dose 5 mg/kg, route oral. The note with it: read-out: Drug uptake.
Data set [5] deals with Hepatitis C virus. In words: Antiviral activity against HCV1b con1 infected in human Huh-7 cells assessed as inhibition of viral replication after 24 hrs in presence of 50% normal human serum. The note with it: Con1, Huh-7, 24 h. In kind it is functional, organism-based, Hepacivirus hominis.
Data set [6] is described as follows: Inhibition of HCV1b BK NS3/4A protease expressed in Escherichia coli after 1 hr by time-resolved fluorescence assay. Details: species or system Hepatitis C virus (isolate BK).
Data set [7] relates to Hepatitis C virus. Briefly: Inhibition of HCV1b NS3/4A protease A156T mutant by time-resolved fluorescence assay. Further details: species or system Hepatitis C virus subtype 1b.
Data set [8] has as its system Hepatitis C virus. Briefly: Antiviral activity against HCV1b con1 infected in human Huh-7 cells assessed as inhibition of viral replication after 24 hrs in presence of 10% fetal bovine serum. It counts as functional, organism-based, Hepacivirus hominis. The note with it: Con1, Huh-7, 24 h.
Data set [9] relates to Hepatitis C virus. In words: Inhibition of HCV1b NS3/4A protease R155K mutant by time-resolved fluorescence assay. Details: species or system Hepatitis C virus subtype 1b.
The nature of data set [10]: Inhibition of HCV3a NS3/4A protease by time-resolved fluorescence assay. Details: species or system Hepatitis C virus subtype 3a.

As to `C=C[C@@H]1C[C@]1(NC(=O)[C@@H]1C[C@@H]2CN1C(=O)[C@H](C(C)(C)C)NC(=O)OCCC/C=C/c1ccc3ccnc(c3c1)O2)C(=O)NS(=O)(=O)C1CC1`, the IC50 (as a rule, the concentration that gives 50% inhibition) in data set [1] came to 4.5 nM. Also, the results for the Ki in [2] and in data set [3] were 0.04 nM and 475 nM, respectively.

With `C=C[C@@H]1C[C@]1(NC(=O)[C@@H]1C[C@@H]2CN1C(=O)[C@H](C1CCCC1)NC(=O)OCC(C)(C)CCCc1cc3c(nc4cc(OC)ccc4c3cc1OC)O2)C(=O)NS(=O)(=O)C1CC1`, the concentration at 4 h in data set [4] was determined as 35 µM. The values for the IC50 in [5] and in [8] were 27 nM and 4 nM, respectively. Moreover, the Ki (usually the equilibrium dissociation constant of an inhibitor or competing ligand from its target) in data set [6] was less than 0.02 nM; in data set [7] it was 16 nM; in data set [9], 0.4 nM; in data set [10] it was 0.8 nM.

With `C=C[C@@H]1C[C@]1(NC(=O)[C@@H]1C[C@@H]2CN1C(=O)[C@H](C1CCCC1)NC(=O)OCC(C)(C)CCCc1cc3c(cc(OCC)nc3cc1OC)O2)C(=O)NS(=O)(=O)C1CC1`, the concentration at 4 h in data set [4] is 35 µM. Further, the IC50 is 11 nM in data set [5] and 2 nM in data set [8]. For the same compound, the Ki in data set [6] came out at 0.03 nM; in [7], 41 nM; in [9], 1.3 nM; in data set [10] it was 2.2 nM.

Consider `C=C[C@@H]1C[C@]1(NC(=O)[C@@H]1C[C@@H]2CN1C(=O)[C@H](C(C)C)NC(=O)N(C)CCCCCc1cc3c(cc(-c4ccccc4)nc3cc1OC)O2)C(=O)NS(=O)(=O)C1CC1`, for which the concentration at 4 h in [4] was 0.304 µM. The Ki in data set [2] was less than 0.16 nM; in data set [3], 5.8 nM.

For the compound `C=C[C@@H]1C[C@]1(NC(=O)[C@@H]1C[C@@H]2CN1C(=O)[C@H](C1CCCC1)NC(=O)OCC(C)(C)C/C=C/c1cc3c(cc(-c4ccccc4)nc3cc1OC)O2)C(=O)NS(=O)(=O)C1CC1`, the concentration at 4 h in [4] is 41 µM. Also, the figures for the inhibitory constant (Ki) in data set [2] and in [3] were less than 0.16 nM and 17 nM, respectively.

In the case of `C=C[C@@H]1C[C@]1(NC(=O)[C@@H]1C[C@@H]2CN1C(=O)[C@H](C1CCCCC1)NC(=O)OCC(C)(C)CCCc1cc3c(cc(N(C)C(=O)OCC)nc3cc1OC)O2)C(=O)NS(=O)(=O)C1CC1`, in data set [4], the concentration at 4 h turned out to be 42 µM. The IC50 in data set [5] was 27 nM; in [8], 5 nM. In addition, the Ki in data set [6] is 0.03 nM; in data set [7], 87 nM; in data set [9], 3.3 nM; in [10], 4.3 nM.

As for `C=C[C@@H]1C[C@]1(NC(=O)[C@@H]1C[C@@H]2CN1C(=O)[C@H](C1CCCCC1)NC(=O)OCC(C)(C)CCCc1cc3c(cc(OCc4csc(C)n4)nc3cc1OC)O2)C(=O)NS(=O)(=O)C1CC1`, the concentration at 4 h in data set [4] is 19 µM. In addition, the IC50 in [5] came out at 16 nM; in [8] it was 3.5 nM. For the same compound, the Ki in data set [6] came to 0.1 nM; in [7], 88 nM; in data set [9] it was 2.1 nM; in data set [10], 3.1 nM.
